Test results reported in patent US20120184542A1, “PYRIDO PYRIMIDINES” (priority 2011, published 2012).
Where a name gives a salt, the structure may show the parent alone.

Tests used:
Human DYRK1A = target: T1, Human DYRK1A (Homo sapiens, UniProt Q13627); experiment: DYRK1A Kinase TR-FRET (IMAP-Tb) Assay; assay type: biochemical; conditions: TR-FRET (IMAP-Tb); ATP 70 μM; 37° C. 60 minutes; read-out: Enzyme IC50 (μM) DYRK1A
T1 construct: purchased Invitrogen PV3997
How it was run: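 Recombinant human DYRK1A phosphorylated fluorescent substrate peptide (1.0 μM) with ATP in 10 mM HEPES pH 7.0, 50 mM NaCl, 5 mM MgCl2, 1 mM DTT, 1 mM NaVO4, 0.02% BSA for 60 min at 37 °C. Phosphopeptide detected by IMAP terbium TR-FRET; IC50 reported.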

Human DYRK1B = target: T2, Human DYRK1B (Homo sapiens, UniProt Q9Y463); experiment: DYRK1B Kinase TR-FRET (IMAP-Tb) Assay; assay type: biochemical; conditions: TR-FRET (IMAP-Tb); ATP 70 μM; 37° C. 60 minutes; read-out: Enzyme IC50 (μM) DYRK1B
T2 construct: purchased Invitrogen PR8350B (former PV4649)
T2 sequence (Q9Y463 whole entry): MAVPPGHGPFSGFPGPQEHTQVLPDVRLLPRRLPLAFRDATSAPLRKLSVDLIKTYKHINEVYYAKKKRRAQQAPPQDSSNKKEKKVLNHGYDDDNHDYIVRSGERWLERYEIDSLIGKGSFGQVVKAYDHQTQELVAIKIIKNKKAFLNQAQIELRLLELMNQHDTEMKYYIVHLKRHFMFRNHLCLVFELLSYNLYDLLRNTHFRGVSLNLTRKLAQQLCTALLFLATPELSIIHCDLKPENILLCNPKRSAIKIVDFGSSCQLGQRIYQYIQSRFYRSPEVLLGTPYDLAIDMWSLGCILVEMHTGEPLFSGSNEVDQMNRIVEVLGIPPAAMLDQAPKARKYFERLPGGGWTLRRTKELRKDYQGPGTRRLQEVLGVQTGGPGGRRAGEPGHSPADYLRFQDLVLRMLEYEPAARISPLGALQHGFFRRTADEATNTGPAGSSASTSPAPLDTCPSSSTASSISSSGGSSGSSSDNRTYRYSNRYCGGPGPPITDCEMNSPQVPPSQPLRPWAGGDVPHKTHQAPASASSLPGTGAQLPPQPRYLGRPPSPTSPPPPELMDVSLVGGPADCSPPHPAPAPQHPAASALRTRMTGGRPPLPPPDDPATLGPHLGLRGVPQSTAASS

[1] = system: SW620 human colon cancer cells; experiment: SW620 Cell Viability Assay; assay type: cell-based; conditions: Homo sapiens, SW-620, 96 h, CellTiter-Glo; 4 days incubation; read-out: Cellular EC50 (μM) SW620
How it was run: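 SW620 human colon cancer cells, some attached 24 h then serum-starved 48 h before dosing; compounds prepared in serum-supplemented medium. Cells incubated with compound 4 days at 37 °C, 5% CO2, and viability measured by CellTiter-Glo luminescence.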

| Structure (SMILES) | IC50 (Human DYRK1A) [µM] | IC50 (Human DYRK1B) [µM] | EC50 [1] [µM] |
| --- | --- | --- | --- |
| CN1CCN(c2ncc3cc(C(=O)Nc4cc(C(=O)NCc5ccccc5)ccc4Cl)c(=O)[nH]c3n2)CC1 [Example 172, 2-(4-Methyl-piperazin-1-yl)-7-oxo-7,8-dihydro-pyrido[2,3-d]pyrimidine-6-carboxylic acid (5-benzylcarbamoyl-2-chloro-phenyl)-amide] | 0.109 | 0.208 | 0.49 |
| C[C@@H](NC(=O)c1ccc(Cl)c(NC(=O)c2cc3cnc(N4CCN(C)CC4)nc3[nH]c2=O)c1)c1ccccc1 [Example 174, 2-(4-Methyl-piperazin-1-yl)-7-oxo-7,8-dihydro-pyrido[2,3-d]pyrimidine-6-carboxylic acid [2-chloro-5-((R)-1-phenyl-ethylcarbamoyl)-phenyl]-amide] | 0.0873 | 0.207 | 0.512 |
| O=C(NCc1cccc(Cl)c1)c1ccc(Cl)c(NC(=O)c2cc3cnc(N4C[C@H]5CC[C@@H](C4)O5)nc3[nH]c2=O)c1 [Example 179, 2-(1R,5S)-8-Oxa-3-aza-bicyclo [3.2.1]oct-3-yl-7-oxo-7,8-dihydro-pyrido[2,3-d]pyrimidine-6-carboxylic acid [2-chloro-5-(3-chloro-benzylcarbamoyl)-phenyl]amide] | 0.0369 | 0.131 | 0.367 |
| O=C(NC(CO)c1ccccc1)c1ccc(Cl)c(NC(=O)c2cc3cnc(N4C[C@H]5CC[C@@H](C4)O5)nc3[nH]c2=O)c1 (stereo partly drawn) [Example 181, 2-(1R,5S)-8-Oxa-3-aza-bicyclo [3.2.1]oct-3-yl-7-oxo-7,8-dihydro-pyrido[2,3-d]pyrimidine-6-carboxylic acid [2-chloro-5-(2-hydroxy-1-phenyl-ethylcarbamoyl)-phenyl]amide] | 0.063 | 0.148 | 1.88 |
| O=C(NC(CCO)c1ccccc1)c1ccc(Cl)c(NC(=O)c2cc3cnc(N4C[C@H]5CC[C@@H](C4)O5)nc3[nH]c2=O)c1 (stereo partly drawn) [Example 182, 2-(1R,5S)-8-Oxa-3-aza-bicyclo [3.2.1]oct-3-yl-7-oxo-7,8-dihydro-pyrido[2,3-d]pyrimidine-6-carboxylic acid [2-chloro-5-(3-hydroxy-1-phenyl-propylcarbamoyl)-phenyl]amide] | 0.083 | 0.081 | 1.12 |
| NCCC(NC(=O)c1ccc(Cl)c(NC(=O)c2cc3cnc(N4C[C@H]5CC[C@@H](C4)O5)nc3[nH]c2=O)c1)c1ccccc1 (stereo partly drawn) [Example 183, 2-(1R,5S)-8-Oxa-3-aza-bicyclo [3.2.1]oct-3-yl-7-oxo-7,8-dihydro-pyrido[2,3-d]pyrimidine-6-carboxylic acid [5-(3-amino-1-phenyl-propylcarbamoyl)-2-chloro-phenyl]amide; hydrochloride] | 0.0046 | 0.0077 | 0.027 |
| COc1ncc2cc(C(=O)Nc3cc(C(=O)NCC[C@@H](N)c4ccccc4)ccc3Cl)c(=O)[nH]c2n1 [Example 184, (R)—N-(5-(3-Amino-3-phenylpropylcarbamoyl)-2-chlorophenyl)-2-methoxy-7-oxo-7,8-dihydropyrido[2,3-d]pyrimidine-6-carboxamide] | 0.331 | 0.691 | 5.09 |
